One block for each compound: values may come before it.
How the values were obtained:
xSirt4 [1] = assay: MS-based assay of metabolite effects on xSirt4 activity; type: biochemical, Xenopus tropicalis; conditions: n = 2 (Supplementary Fig. 3b)
Procedure: For MS and UV analyzes of deacylation reactions, samples were prepared as described for the coupled continuous assay, stopped by mixing 1:1 with 0.5% TFA after 0 and 60 min, diluted to 20 µM peptide using 0.1% FA, and analyzed by HPLC-separation using a Shimadzu Prominence UFLC (Shimadzu, Duisburg, Germany) coupled to ESI-MS and UV detection. Samples were washed on a Piccolo Proto 200 C4 5 μm 2.5 × 0.5 mm trap column (Higgins Analytical, Mountain View, California) and subsequently subjected to a Jupiter C4 5 μm 300 Å 150 × 1 mm analytical column (Phenomenex, Torrance, California) for reversed phase separation, with 99.9% H2O, 0.1% TFA as buffer A and 99.9% ACN, 0.1% TFA as buffer B. Peptides were eluted over a 20 min gradient from 1 to 55% buffer B, followed by 1 min from 55 to 90% buffer B with 70 µL min^−1 flow-rate. […] We detected in a mass range from 300 to 2500 m/z. […]
Supplementary Figure 3. […] (n=2; error bars: s.d.) e, Inner surfaces of the nucleotide binding sites of Sirt1-6, colored by electrostatic potential calculated with APBS2.1 in PyMOL using PDB IDs 4KXQ (Sirt1), 5D7O (Sirt2), 4BN4 (Sirt3), our xSirt4 structure, PDB IDs 3RIY (Sirt5) and 3K35 (Sirt6). […] The surfaces are colored according to electrostatic potential (red/-15 to blue/+15 kBT/e). f, xSirt4 surface colored by electrostatic potential calculated using APBS2.1 in PyMOL (red/-15 to blue/+15 kBT/e). […]

xSirt4 [2] = assay: Thermal denaturation shift assay; type: binding, Xenopus tropicalis; conditions: 3 µM xSirt4, SYPRO orange, 20 to 73 °C; n = 2
Procedure: Thermal shift assays were performed in 96-well PCR plates using 3 µM xSirt4 (32–315) or 3 µM zSirt4 (29–310) and SYPRO orange (Thermo Fisher, Waltham, MA, USA) covered with 15 µL mineral oil. Heating and fluorescence measurements were performed in a FluoDia T70 with 1 K steps from 20 to 73 °C (excitation: 465 nm, emission: 580 nm). The data were analyzed in GraFit (Erithacus Software Ltd, Horley, UK) by nonlinear fitting using a two state model.

[3] = Non-enzymatic acylation of CPS1 peptide by acyl-CoA (titration); conditions: HMG-CoA titrations
Cyclophilin A (CypA) = target: T1, Cyclophilin A (CypA) (Homo sapiens, UniProt P62937); assay: HMG-CoA modification of recombinant Cyclophilin A, intact protein MS; conditions: CypA 0.4 mg/ml, 8 mM HMG-CoA, 100 mM Tris-HCl pH 8.3, 37 °C, 4 h
T1 construct: expression of a full-length CypA construct in pQE70 (Qiagen) in E. coli M15 cells; made in house; host or cells: E. coli M15
Procedure: The recombinant CypA was prepared through expression of a full-length CypA construct in pQE70 (Qiagen) in E. coli M15 cells and purification by ion exchange chromatography on Fractogel EMD DEAE-650(M), Fractogel TSK AF-Blue, and Fractogel SO3–650(M) (Merck Millipore)[29]. CypA protein (0.4 mg ml^−1) was modified using 8 mM HMG-CoA in 100 mM Tris-HCl buffer pH 8.3 at 37 °C for 4 h. Formation of HMG-ylated protein was confirmed by peptide-MS analyzes after tryptic digest, and by intact HMG-CypA mass analyzes through HPLC-coupled ESI-MS[56]. For intact mass determination, 25 µM HMG-CypA in 10 mM Tris/HCl pH 7.5, 50 mM NaCl was HPLC-separated with the setting described below for peptide MS, using a 30 min gradient from 1 to 55% buffer B (90% ACN, 9.9% H2O, 0.1% FA; buffer A: 5% ACN, 94.9% H2O, 0.1% FA) followed by 1 min of 55–90% buffer B with 70 µL min^−1 flow-rate. MS-analyzes were done with the settings described for peptide assays (below), except that the IntactProtein script was activated, which reduces CEM to 100. Acquired data were extracted with PeakView and deconvoluted in MassLynx in the range of 950–1500 m/z using the MaxEnt I algorithm to a resolution of 1 Da. Peak intensity values were recorded and overlaid using MassLynx.

hSirt4 [4] = target: T2, hSirt4 (Homo sapiens, UniProt Q9Y6E7); assay: HMG-FdL (Fluor-de-Lys-like) de-HMG-ylation assay; type: biochemical
T2 construct: hSirt4(25–314) in pQE30 coding for an N-terminal His6-tag; His6 (N); made in house; host or cells: Escherichia coli CodonPlus(DE3)
T2 sequence (Q9Y6E7 25-314): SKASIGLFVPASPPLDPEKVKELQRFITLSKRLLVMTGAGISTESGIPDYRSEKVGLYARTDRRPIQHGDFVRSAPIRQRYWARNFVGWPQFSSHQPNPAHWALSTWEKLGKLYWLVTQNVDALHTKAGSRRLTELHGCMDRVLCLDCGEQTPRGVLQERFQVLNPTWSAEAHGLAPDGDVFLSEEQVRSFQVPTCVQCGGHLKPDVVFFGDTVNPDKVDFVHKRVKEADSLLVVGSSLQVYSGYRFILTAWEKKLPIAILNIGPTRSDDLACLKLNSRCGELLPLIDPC
Procedure: As a convenient and complementary, fluorescence-based alternative to the coupled enzymatic assay with HMG-peptides, we established substrate and assay corresponding to the popular “Fluor-de-Lys” (FdL) deacylation assays. […] We then employed the FdL-like Sirt4 assay for studying the effects of NAM and NADH, which are not compatible with the coupled assay. […] After 20 min, developer solution (2 mM NAM and 10 mg mL^−1 trypsin) in assay buffer was added 1:1 and samples were incubated for 45 min at room temperature. Fluorescence was measures using a FluoDia T70 with excitation wavelength 365 nm and emission wavelength 465 nm.

hSirt4 [5] = target: T2, hSirt4; assay: Coupled continuous enzymatic assay monitoring NAM release from NAD+ (Sirt4 deacylation); type: biochemical; conditions: coupled enzymatic assay; for effect on Sirt4 de-HMG-ylation activity: HMG-CPS1 peptide; for Sirt4 deacylation signal with CypA protein as substrate: increasing amounts of protein substrate, n = 2 (Fig. 1f)
Procedure: The seven mammalian sirtuins vary in their sequence and acyl preferences[16],[19]. […] We therefore asked whether other acyl modifications would yield deacylation efficiencies expected for a physiologically dominant Sirt4 activity.
The coupled continuous assay was performed as reported. […] Reactions were monitored in microplates at room temperature for 1 h through absorption measurements at 340 nm in a LAMBDAScan plate reader (MWG Biotech, Ebersberg, Germany).

[6] = non-enzymatic; cited from earlier work
Source text: Acetyl transferases employ acetyl-CoA for modifying proteins. However, acetyl-CoA can also non-enzymatically modify proteins, and some other acyl-CoA, such as succinyl-CoA, do so even more efficiently, likely causing the emerging variety of protein acylations[14],[28],[29],[31]. We thus analyzed whether HMG-CoA efficiently acylates peptides and proteins.

[7] = 10 and 100 μM compound, n = 2 (Fig. 4a)

T1 sequence (P62937 whole entry): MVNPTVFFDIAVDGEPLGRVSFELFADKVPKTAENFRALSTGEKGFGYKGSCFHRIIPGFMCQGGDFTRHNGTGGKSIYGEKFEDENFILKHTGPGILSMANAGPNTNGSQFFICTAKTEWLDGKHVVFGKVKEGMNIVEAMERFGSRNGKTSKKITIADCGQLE

Compound: O=C(O)CCCC[C@@H]1CCSS1 (racemic) [lipoic acid]
- effect on Sirt4 de-HMG-ylation activity (xSirt4 [1]): inhibits
- effect on Sirt4 deacetylation activity (xSirt4 [1]): inhibits

Compound: Nc1ncnc2c1ncn2[C@@H]1O[C@H](COP(=O)(O)OP(=O)(O)OC[C@H]2OC(O)[C@H](O)[C@@H]2O)[C@@H](O)[C@H]1O (some centres unmarked) [ADPr, ADP-ribose]
- Sirt4 stabilization in thermal denaturation shift experiments (xSirt4 [2]): significant Sirt4 stabilization

- number of HMG-modifications on CypA (Cyclophilin A (CypA)): 1–7
Compound: CC(C)(CO[P@@](=O)(O)O[P@@](=O)(O)OC[C@H]1O[C@@H](n2cnc3c(N)ncnc32)[C@H](O)[C@@H]1OP(=O)(O)O)[C@@H](O)C(=O)NCCC(=O)NCCSC(=O)C[C@@](C)(O)CC(=O)O [HMG-CoA]
- bimolecular rate constant of CPS1 peptide acylation [3]: (4.0 ± 0.8)×10^–10 μM^−1 s^−1

- acceptance as Sirt4 substrate (hSirt4 [4]; FdL procedure, fluorescence): readily accepted by Sirt4
Compound: Cc1cc(=O)oc2cc(NC(=O)[C@H](CCCCNC(=O)CC(C)(O)CC(=O)O)NC(=O)OCc3ccccc3)ccc12 (stereo partly drawn) [HMG-FdL substrate, 5-(((S)−5-(((benzyloxy)carbonyl)amino)-6-((4-methyl-2-oxo-2H-chromen-7-yl)amino)-6-oxohexyl)amino)-3-hydroxy-3-methyl-5-oxopentanoic acid]

Compound: NC(=O)c1cccnc1 [NAM, nicotinamide]
- Sirt4 stabilization in thermal denaturation shift experiments (xSirt4 [2]): no pronounced effects

- effect on Sirt4 de-HMG-ylation activity (hSirt4 [5]; 100 μM compound, high error, effect already in control reaction (assay incompatibility)): weak signal decrease
- effect on Sirt4 activity in HMG-FdL assay (hSirt4 [4]; 1 µM hSirt4, 500 µM HMG-FdL substrate, 500 µM NAD+, n = 2 (Fig. 4c)): no effect on Sirt4 activity
Compound: O=C(Nc1ccccc1-c1cn2c(CN3CCNCC3)csc2n1)c1cnc2ccccc2n1 [SRT1720]

Compound: CC(=O)SCCNC(=O)CCNC(=O)[C@H](O)C(C)(C)COP(=O)(O)OP(=O)(O)OC[C@H]1O[C@@H](n2cnc3c(N)ncnc32)[C@H](O)[C@@H]1OP(=O)(O)O [acetyl-CoA]
- bimolecular rate constant k of CPS1 peptide acylation [6]: (1.5 ± 0.4)×10^–10 μM^−1 s^−1

- effect on Sirt4 de-HMG-ylation activity (hSirt4 [5]; [7]): no significant effect
Compound: Oc1ccc(/C=C/c2cc(O)cc(O)c2)cc1 [resveratrol]

Compound: CC(NC(=O)c1ccccc1/N=C/c1c(O)ccc2ccccc12)c1ccccc1 (centres unmarked) [sirtinol]
- effect on Sirt4 de-HMG-ylation activity (hSirt4 [5]; [7]): no significant effect

Compound: HMG-CypA: recombinant Cyclophilin A modified with HMG-CoA (1–7 HMG-modifications)
- Sirt4 deacylation signal with CypA protein as substrate (hSirt4 [5]): strong, substrate concentration dependent signal

Compound: Unmodified CypA: recombinant Cyclophilin A, untreated
- Sirt4 deacylation signal with CypA protein as substrate (hSirt4 [5]): did not yield a significant deacylation signal
